Patent US10011573B2, “Human androgen receptor DNA-binding domain (DBD) compounds as therapeutics and methods for their use” (The University of British Columbia, priority 2014, dated 2018)
Read-outs that look alike come from different tables or passages of the source.

Target: T1, androgen receptor (AR) (Homo sapiens, UniProt P10275, T878A)
T1 sequence (P10275 1-920 T878A): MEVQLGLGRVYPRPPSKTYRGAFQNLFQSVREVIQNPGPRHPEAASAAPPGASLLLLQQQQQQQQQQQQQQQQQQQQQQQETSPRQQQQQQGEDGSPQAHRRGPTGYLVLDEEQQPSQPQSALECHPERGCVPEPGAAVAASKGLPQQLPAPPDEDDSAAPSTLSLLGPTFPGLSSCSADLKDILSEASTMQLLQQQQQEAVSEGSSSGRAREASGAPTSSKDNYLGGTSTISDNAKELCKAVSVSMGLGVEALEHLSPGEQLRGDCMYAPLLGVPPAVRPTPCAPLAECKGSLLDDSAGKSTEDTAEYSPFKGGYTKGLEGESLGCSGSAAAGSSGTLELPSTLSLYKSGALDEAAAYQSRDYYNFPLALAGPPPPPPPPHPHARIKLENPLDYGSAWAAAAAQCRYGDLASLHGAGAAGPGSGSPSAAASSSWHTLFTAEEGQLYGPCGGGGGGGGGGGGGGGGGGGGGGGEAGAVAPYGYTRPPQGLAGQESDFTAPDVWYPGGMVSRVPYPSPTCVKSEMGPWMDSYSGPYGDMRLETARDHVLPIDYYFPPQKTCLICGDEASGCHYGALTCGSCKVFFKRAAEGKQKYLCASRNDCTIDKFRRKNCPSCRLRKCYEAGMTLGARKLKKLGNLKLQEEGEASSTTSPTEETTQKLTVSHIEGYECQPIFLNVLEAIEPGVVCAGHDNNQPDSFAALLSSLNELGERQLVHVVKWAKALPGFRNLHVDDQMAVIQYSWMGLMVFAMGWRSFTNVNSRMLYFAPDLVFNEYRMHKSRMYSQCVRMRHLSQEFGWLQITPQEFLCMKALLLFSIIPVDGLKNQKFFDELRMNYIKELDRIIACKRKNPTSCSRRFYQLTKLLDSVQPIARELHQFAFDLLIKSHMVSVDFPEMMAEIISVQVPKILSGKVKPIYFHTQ
Experiment: eGFP cellular AR transcription assay (LNCaP eGFP cells, LN-ARR2PB-eGFP)
Conditions: for inhibition at 3 µM: LNCaP, read-out: % Inhibition (3 μM); for anti-AR activity (AR transcriptional inhibition) in words: LNCaP (T877A AR); for eGFP IC50: 0.1 nM R1881

[1] = eGFP IC50 (μM), LNCaP eGFP cells

SMILES	inhibition at 3 µM [%]	% Inhibition (3 μM) [%]	also measured
O=C1C(Cl)=C(N2CCOCC2)C(=O)N1c1ccccc1Cl [Compound 14475]		8.89	
OCc1sc(N2CCOCC2)nc1-c1ccccc1 [Compound 14274]		5.04	
CS(=O)(=O)c1c(F)cccc1-c1csc(N2CCOCC2)n1 [Compound 14429]			IC50 (eGFP IC50 (μM), Series 1): 3.55 µM
NC(=S)N/N=C1\C(=O)c2cccc3cccc1c23 [Compound 14151]			IC50 [1]: 30 µM
CCc1ccc(-c2csc(N3CCOCC3)n2)cc1 [Compound 14259]		26.26	
Oc1ccc(-c2csc(N3CCOCC3)n2)c(O)c1 [Compound 14295]		24.7	
CC1CN(c2nc(-c3ccc([N+](=O)[O-])cc3)cs2)C(C)CO1 (stereo not shown) [Compound 14247]		3.73	
N#Cc1ccc(-c2csc(N3CCOCC3)n2)cc1 [Compound 14457]			% Inhibition (3 μM) (3 µM): 80%
Cc1cc(N2CCOCC2)nc2ccccc12 [Compound 14434]			IC50 [1]: 1.09 µM
N#Cc1cc2ccccc2nc1N1CCOCC1 [Compound 14433]			IC50 [1]: 1.95 µM
Cc1ccc(-c2csc(N3CCOCC3)n2)cc1C [Compound 14294]	40		IC50 (eGFP IC50 (μM), Series 1): 10.3 µM
c1ccc2nc(N3CCCCC3)ccc2c1 [Compound 14495]	89.4		IC50 [1]: 0.6 µM
Fc1ccc(-c2csc(N3CCSCC3)n2)cc1 [Compound 14386]			IC50 (eGFP IC50 (μM), Series 1): 1.6 µM
Oc1ccccc1/C=C/c1ccccn1 [Compound 14088]			IC50 [1]: 3.54 µM
CNc1cc(F)c(OC)c(-c2csc(N3CCOCC3)n2)c1 [Compound 14465]			IC50 (eGFP IC50 (μM), Series 1): 3.06 µM
c1ccc2sc(-c3csc(N4CCOCC4)n3)nc2c1 [Compound 14137]		37.44	
CC(=O)c1ccc(-c2ccccc2)s1 [Compound 14422]	131		IC50 (eGFP IC50 (μM), Series 1): 2.26 µM
COc1ccc(-c2csc(N3CCOCC3)n2)cc1OC [Compound 14252]		26.03	
Cc1cccn1-c1csc(N2CCOCC2)n1 [Compound 14410]			IC50 (eGFP IC50 (μM), Series 1): 28.4 µM
COc1ccc(-c2nc(-c3ccccc3)cs2)cc1 [Compound 14419]		119.36	IC50 (read-out: eGFP IC50): 6.11 µM
Oc1ccc(-c2csc(N3CCOCC3)n2)cc1O [Compound 14267]		19.95	
CS(=O)(=O)c1ccc(-c2csc(N3CCOCC3)n2)cc1 [Compound 14277]		12.71	
Clc1cnccc1-c1csc(N2CCOCC2)n1 [Compound 14446]		24	
COc1ccc(-c2csc(N3CCOCC3)n2)cc1 [Compound 14249]		45.16	
Clc1scc(-c2csc(N3CCOCC3)n2)c1Cl [Compound 14462]			IC50 (eGFP IC50 (μM), Series 1): 0.11 µM
c1sc(N2CCOCC2)nc1C1CCCC1 [Compound 14403]	22		anti-AR activity (AR transcriptional inhibition) in words: lost their anti-AR activity; eGFP IC50 (LNCaP eGFP cells): Low activity
Oc1ccc(-c2csc(-c3ccccc3)n2)cc1 [Compound 14420]	125		IC50 (eGFP IC50 (μM), Series 1): 3.73 µM

SMILES	inhibition at 3 µM [%]	% Inhibition (3 μM) [%]	also measured
COc1cccc(-c2csc(-c3ccccn3)n2)c1 [Compound 14343]		16.12	
NC(=O)N1CCN(c2nc(-c3ccccc3)cs2)CC1 [Compound 14339]		15.82	
Clc1ccccc1-c1csc(N2CCOCC2)n1 [Compound 14437]		45.04	
c1cc2c(cc1-c1csc(N3CCOCC3)n1)COC2 [Compound 14282]		29.04	
CN1CCN(c2nc(-c3ccccc3)cs2)CC1 [Compound 14338]		19.33	
N#Cc1ccc(-c2csc(N3CCOCC3)n2)cc1 [Compound 14261]			% Inhibition (3 μM) (3 µM): 25.48%
CCSc1ccc(-c2cc(C)nc(N)n2)cc1 [Compound 14055]			IC50 [1]: 10 µM
Brc1ccc(-c2csc(N3CCOCC3)n2)cc1 [Compound 14251]		7.96	
CS(=O)(=O)Nc1ccc(-c2csc(N3CCOCC3)n2)cc1 [Compound 14276]		25.98	
Cc1sc(N2CCOCC2)nc1-c1ccccc1 [Compound 14349]			IC50 (eGFP IC50 (μM), Series 1): 1.47 µM
Cc1sccc1-c1csc(N2CCOCC2)n1 [Compound 14407]		38.00	
c1ccc2oc(-c3csc(N4CCOCC4)n3)cc2c1 [Compound 14136]		40.98	
NC(=O)c1ccc(-c2ccc3ccccc3n2)cc1 [Compound 14389]	14.5		
c1cc2c3c(ccc(-c4ccn[nH]4)c3c1)CC2 [Compound 14053]			IC50 [1]: 4 µM
c1ccc2c(c1)ncn2-c1csc(N2CCOCC2)n1 [Compound 14509]			IC50 (read-out: eGFP IC50): 1.17 µM
Cc1sc(CO)c(-c2csc(N3CCOCC3)n2)c1C [Compound 14466]			IC50 (eGFP IC50 (μM), Series 1): 0.4 µM
C/C(=N\NC(N)=S)c1ccc2c3c(cccc13)CC2 [Compound 14206]	109		IC50 [1]: 3.4 µM
FC(F)(F)c1cccc(-c2csc(-c3cnccn3)n2)c1 [Compound 14486]		20.4	
c1ccc2c(-n3ccnc3)cccc2c1 [Compound 14163]			IC50 [1]: 24 µM
Cc1ccc(-c2csc(N3CCOCC3)n2)c(C)c1 [Compound 14283]		38.89	
c1ccc2cc(-n3ccnc3)ccc2c1 [Compound 14018]			IC50 [1]: 13.9 µM
c1ccc2cc(-c3csc(N4CCOCC4)n3)ccc2c1 [Compound 14231]		38.78	
Clc1ccc(-c2csc(N3CCOCC3)n2)cc1 [Compound 14253]	38.2		IC50 (eGFP IC50 (μM), Series 1): 39.9 µM
CNC(=S)N/N=C1\C(=O)c2cccc3cccc1c23 [Compound 14153]			IC50 [1]: 6 µM
COc1c(F)cc(O)cc1-c1csc(N2CCOCC2)n1 [Compound 14467]			IC50 (eGFP IC50 (μM), Series 1): 3.7 µM
O=C1C(Cl)=C(N2CCOCC2)C(=O)N1c1ccccc1 [Compound 14476]		9.79	
NC(=S)NN=C1c2ccccc2-c2ccccc21 [Compound 14205]	45.8		IC50 [1]: 7.38 µM

More lines, main results first:

inhibition at 3 µM [%]	SMILES	% Inhibition (3 μM) [%]	also measured
8.65	Oc1ccc(-c2ccc3ccccc3n2)cc1 [Compound 14440]		IC50 [1]: 9.48 µM
0	O=[N+]([O-])c1ccc2nc(N3CCOCC3)ccc2c1 [Compound 14454]		
17.3	O=c1[nH]c(N2CCOCC2)cc2ccccc12 [Compound 14453]		
86.8	NC(=S)N/N=C/c1cccc2ccccc12 [Compound 14164]		IC50 [1]: 3.04 µM
0	O=C(O)c1csc(N2CCOCC2)n1 [Compound 14502]		
60	CC1CCCN(c2nc(-c3ccc(O)cc3O)cs2)C1 (stereo not shown) [Compound 14301]		IC50 (eGFP IC50 (μM), Series 1): 5 µM
33	c1sc(N2CCOCC2)nc1C1CCCCC1 [Compound 14406]		anti-AR activity (AR transcriptional inhibition) in words: lost their anti-AR activity; eGFP IC50 (LNCaP eGFP cells): Low activity
107	FC(F)(F)c1cccc(-c2csc(-c3ccncc3)n2)c1 [Compound 14421]		IC50 (eGFP IC50 (μM), Series 1): 4.61 µM
27	CC1CN(c2cnc3ccccc3n2)CC(C)O1 (stereo not shown) [Compound 14487]		
106	CC(C)Oc1c(F)cccc1-c1csc(N2CCOCC2)n1 [Compound 14430]		IC50 (eGFP IC50 (μM), Series 1): 5.27 µM
45.5	NC(=S)N/N=C1\CCCc2ccccc21 [Compound 14175]		IC50 [1]: 13.6 µM
99.5	c1ccc2c(-c3csc(N4CCOCC4)n3)cccc2c1 [Compound 14230]		IC50 (eGFP IC50 (μM), Series 1): 1.61 µM
66.5	Nc1cccc(-c2ccc3ccccc3n2)c1 [Compound 14321]		
99.6	C/C(=N/O)c1ccc2c(C)ccc3c2c1CC3 [Compound 14171]		IC50 [1]: 3.38 µM
65.4	C[C@@H]1C(=O)N(c2ccccc2)C2C=CC=CC21 (stereo partly shown) [Compound 14078]		IC50 [1]: 20 µM
9	c1ccc2c(N3CCOCC3)nccc2c1 [Compound 14112]		
109	Nc1ccc2nc(-c3cccc(O)c3)sc2c1 [Compound 14387]		IC50 [1]: 14.8 µM
44.9	OCc1cccc(-c2ccc3ccccc3n2)c1 [Compound 14388]		IC50 [1]: 10.4 µM
46.4	NC(=S)NN=C(c1ccccc1)c1ccccc1 [Compound 14172]		IC50 [1]: 29.4 µM
93.1	Nc1ccccc1CN1C(=O)Cc2ccccc21 [Compound 14082]		IC50 [1]: 9.5 µM
31.2	c1ccc2sc(N3CCOCC3)nc2c1 [Compound 14393]		IC50 [1]: 46.6 µM
3.37	O=[N+]([O-])c1ccc(-c2csc(N3CCOCC3)n2)cc1 [Compound 14254]		IC50 (eGFP IC50 (μM), Series 1): 15.8 µM
